Experimental data as given in patent publication US11220524B2, “Selective inhibitors of protein arginine methyltransferase 5 (PRMT5)” (PRELUDE THERAPEUTICS, INCORPORATED, priority 2017, dated 2022).
In brackets after ≈: the same amount, converted by molar mass. Where a name gives a salt, the structure may show the parent alone. Read-outs that look alike come from different tables or passages of the source.

Assays:
[1] = tested on: Granta-519 mouse xenograft; test: Tumor growth inhibition and body weight in Granta-519 mouse xenograft model; format: in vivo; settings: 50 mg/kg orally QD for 14 days
Method: (§1) In Vivo Pharmacodynamic Effect of Example 36 in Granta-519 Mouse Xenograft Model.
(§2) Granta-519 cells was maintained in DMEM medium supplemented with 10% fetal bovine serum and 2 mM L-Glutamine at 37° C. in an atmosphere of 5% C02 in air. Cells in exponential growth phase were harvested and 1×10^7 cells in 0.1 mL of PBS with Matrigel (1:1) were injected subcutaneously at the right lower flank region of each mouse for tumor development. The treatments were started when the mean tumor size reaches approximately 300-400 mm^3. […] Example 36 or vehicle (0.5% methylcellulose+0.1% Tween 80) were administered orally (BID for Example 36, QD for vehicle) at a dose of 25 mg/kg for 6 days. Body weights and tumor size were measured thrice weekly after randomization. Animals were euthanized 4 hours after last dosing on day 6, and blood and tumor samples were collected for analysis.
Example 92 or vehicle (0.5% Na CMC+0.5% Tween80, suspension) were administered orally (QD for Example 92, QD for vehicle) at a dose of 50 mg/kg for 14 days. Body weights and tumor size were measured every 3 to 4 days after randomization. Animals were euthanized 4 hours after last dosing, and blood and tumor samples were collected for analysis.

[2] = tested on: sDMA in Granta-519 tumors; test: In vivo pharmacodynamic effect: sDMA levels in tumor samples of Granta-519 mouse xenograft model; settings: 50 mg/kg orally QD for 14 days
Method: as §1, §2
To measure sDMA levels in tumor samples, tumors from each mouse were weighted and homogenized in RIPA buffer supplemented with protease inhibitor (cOmplete™, EDTA-free Protease Inhibitor Cocktail, Roche). […] Total protein concentrations of lysate were determined by BCA assay (ThermoFisher Scientific, Catalog #: 23225). Equal amount of total proteins from each tumor were separated on SDS-PAGE gel, and sDMA levels were determined by WB as described previously. […]

[3] = In vivo pharmacokinetic study in rat (i.v. and p.o.); settings: rat SD male non-fasted; for clearance / half-life / Vd / bioavailability: blood; for clearance / half-life / Vd: iv; for half-life: read-out: T1/2 (printed T2) (converted); for Vd: read-out: Vss; for bioavailability: po
Method: In Vivo Pharmacokinetic Properties of Example 36.
In a rat (SD, male, non-fasted) non-crossover cassette PK study, Example 36 was dosed at 0.25 mg/kg via i.v. administration (N=3) and 2 mg/kg via oral gauge (p.o.) (N=3) with other 3 compounds.
In Vivo Pharmacokinetic Properties of Example 92.
In a rat (SD, male, non-fasted) non-crossover PK study, Example 92 was dosed at 1 mg/kg (DMA: 20% HPBCD=5:95, solution) via i.v. administration (N=2) and 1 mg/kg (0.5% Na CMC+0.5% Tween80, solution) via oral gauge (p.o.) (N=2).

[4] = target: PRMT5/MEP50 complex (Homo sapiens (Human), UniProt O14744); test: Biochemical assay: PRMT5/MEP50 methylation of histone H2A with 3H-SAM, filter plate scintillation
Outline: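 5 nM PRMT5/MEP50 preincubated with compound 15–20 min at room temperature, with 5 μM histone H2A as substrate; reaction started with 1 μM 3H-SAM and run 60 min at 30 °C. TCA-stopped, filter-captured methylation counted by scintillation; IC50 from 4-parameter Hill fit.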

[5] = physchem; settings: for solubility at 4 h: 25 °C, fassif, thermodynamic from solid
Method: Compounds were first dispersed in freshly prepared FaSSIF (http://biorelevant.com/site_media/upload/documents/How_to_make_FaSSIF_FeSSIF_and_FaSSGF.pdf) buffer in 1 mg/mL respectively, and the standard samples were prepared by preparing 1 mg/mL of test compounds in DMSO. The compounds were then sufficient mixed by vortex mixer for 30 sec, and agitated at 25° C. using 300 rpm form 4 hour in thermo mixer. After incubation, the prepared samples were centrifuged at 10000 rpm for 10 min to remove the undissolved solid, the resulting supernatants were applied to HPLC. The actual concentrations of the compounds were evaluated by measuring the peak area, and the solubility (S) of compounds was calculated according to following equation: S=Csmp=Cstd*(Asmp/Astd)*(Vstd/Vsmp) Where C is the sample concentration in μg/mL, A is the peak area, and V is the injection volume.

[6] = tested on: Symmetric Di-Methyl Arginine (sDMA) in Granta-519 cells; test: Western blot for symmetric di-methyl arginine (sDMA) marks in Granta cells, 3 days treatment; format: cell-based; settings: Homo sapiens, 72 h; Granta-519 cell line, 3 days
[7] = tested on: Granta-519 cells; test: Cell proliferation assay on Granta-519 cells (CCK-8, day 10); format: cell-based; settings: Homo sapiens, 240 h, Granta-519 cell line, read-out: Proliferation IC50
Method: Cell Proliferation Assay to Determine IC50 on Granta-519 Cells
Granta-519 cells were maintained in PRMI 1640 (Corning Cellgro, Catalog #: 10-040-CV) medium supplemented with 10% v/v FBS (GE Healthcare, Catalog #: SH30910.03). Compounds were dissolved in DMSO to make 10 mM stocks and stored at −20° C. Nine-point, 3-fold serial dilutions were made with DMSO with top concentration at 1 mM (working stocks).
On day of experiment, compound working stocks were further diluted at 1:50 with fresh medium in 96 well plate, and 10 μL of diluted drugs were added to a new 96 well plate for proliferation assay. Cells growing at exponential phase were spun down at 1500 rpm for 4 min and resuspend in fresh medium to reach a density of 0.5×10^6 cells/ml. 200 ul of cells were added to 96 well plate containing diluted drugs and incubated for 3 days. DMSO was used a vehicle control.
One day 3, 10 μL of Cell Counting Kit-8 (CCK-8, Jojindo, CK04-13) solution was added to a new 96 well plate. Cells incubated with drugs for 3 days were resuspended by pipetting up and down, and 100 μL of cells were transferred to 96 well plate containing CCK-8 reagent to measure viable cells. Plates were incubated in C02 incubator for 2 hours and OD450 values were measured with a microplate reader (iMark microplate reader, Bio-Rad).
For re-plating, compound working stocks were diluted at 1:50 with fresh medium and 10 μL of diluted drugs were added to anew 96 well plate. Cells from Day 3plate (50 ul) were added to 96 well plate containing fresh drug and additional 150 of fresh medium was added to reach 200 ul volume. Plate was returned to CO2incubator and incubated for 3more days. Viable cells measurement and re-plating were repeated on day 6, and the final viable cells measurement was taken on day 10.
Percentage of viable cells, relative to DMSO vehicle control, were calculated and plotted in Graphpad Prism ([Inhibitor] vs. normalized response-Variable slope) to determine proliferation IC50 values on day 10.

[8] = histone H2A 5 μM, SAM 1 μM, enzyme 5 nM, read-out: PRMT5/MEP50 IC50

Chain of PRMT5/MEP50 complex (O14744 whole entry): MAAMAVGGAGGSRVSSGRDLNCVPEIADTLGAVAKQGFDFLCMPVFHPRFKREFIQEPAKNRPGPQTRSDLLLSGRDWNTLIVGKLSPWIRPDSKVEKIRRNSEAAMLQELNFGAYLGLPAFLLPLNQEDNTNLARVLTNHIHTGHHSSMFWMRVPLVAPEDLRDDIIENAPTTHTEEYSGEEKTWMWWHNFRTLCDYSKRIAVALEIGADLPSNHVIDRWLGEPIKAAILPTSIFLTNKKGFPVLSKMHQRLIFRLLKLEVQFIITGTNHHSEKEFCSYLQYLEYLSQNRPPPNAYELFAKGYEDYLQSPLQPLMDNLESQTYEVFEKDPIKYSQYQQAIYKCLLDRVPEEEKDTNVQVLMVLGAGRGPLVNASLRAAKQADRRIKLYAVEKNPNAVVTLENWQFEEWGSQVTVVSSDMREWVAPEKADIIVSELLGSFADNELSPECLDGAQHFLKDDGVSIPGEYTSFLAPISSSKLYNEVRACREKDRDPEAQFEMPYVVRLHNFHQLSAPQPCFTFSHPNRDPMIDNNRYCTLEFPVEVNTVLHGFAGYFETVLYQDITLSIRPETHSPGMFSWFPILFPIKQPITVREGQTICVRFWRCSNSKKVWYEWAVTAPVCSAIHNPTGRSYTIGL
Chain of PRMT5/MEP50 complex (Q9BQA1 whole entry partner): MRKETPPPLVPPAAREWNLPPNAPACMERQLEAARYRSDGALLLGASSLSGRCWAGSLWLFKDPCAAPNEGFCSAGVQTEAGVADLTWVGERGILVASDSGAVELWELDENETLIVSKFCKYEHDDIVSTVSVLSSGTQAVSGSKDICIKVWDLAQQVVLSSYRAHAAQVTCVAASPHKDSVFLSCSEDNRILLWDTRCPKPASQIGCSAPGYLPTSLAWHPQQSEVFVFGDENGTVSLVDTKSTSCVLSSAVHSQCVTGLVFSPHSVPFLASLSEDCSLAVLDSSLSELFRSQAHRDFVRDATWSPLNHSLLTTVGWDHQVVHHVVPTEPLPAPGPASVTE

SMILES	IC50 [4, 8]	IC50 [6]	IC50 [7]	also measured
CO/N=c1\[nH]cnc2c1ncn2[C@@H]1O[C@H]([C@](C)(O)c2ccc(Cl)c(Cl)c2)[C@@H](O)[C@H]1O [Example 92A, (2S,3S,4R,5R)-2-[(1R)-1-(3,4-dichlorophenyl)-1-hydroxy-ethyl]-5-[(6Z)-6-methoxyimino-1H-purin-9-yl]tetrahydrofuran-3,4-diol]	–	–	–	solubility at 4 h [5]: 54.7 µg/mL (≈ 120 µM)
C[C@@](O)(c1ccc(Cl)c(Cl)c1)[C@H]1O[C@@H](n2cnc3/c(=N/O)nc[nH]c32)[C@H](O)[C@@H]1O [Example 108, 9-((2R,3R,4S,5S)-5-((R)-1-(3,4-dichlorophenyl)-1-hydroxyethyl)-3,4-dihydroxytetrahydrofuran-2-yl)-3,9-dihydro-6H-purin-6-one oxime]	–	131 nM	415 nM	IC50 [4]: 9.6 nM
CC(=O)CC(c1ccccc1)c1c(O)c2ccccc2oc1=O (stereo not shown) [Warfarin, reference compound]	–	–	–	FaSSIF solubility of positive controls ([5]; positive controls in this experiment): 10 to 25 µg/mL
N/N=c1/nc[nH]c2c1ccn2[C@@H]1O[C@H]([C@H](O)c2ccc(Cl)cc2)[C@@H](O)[C@H]1O [compound 20, 7-[(2R,3R,4S,5R)-5-[(R)-(4-chlorophenyl)-hydroxy-methyl]-3,4-dihydroxy-tetrahydrofuran-2-yl]-1H-pyrrolo[2,3-d]pyrimidin-4-one hydrazone]	0.6 nM	120000 nM	98 nM	–
O/N=c1/nc[nH]c2c1ccn2[C@@H]1O[C@H]([C@H](O)c2ccc(Cl)cc2)[C@@H](O)[C@H]1O [compound 37, 7-[(2R,3R,4S,5R)-5-[(R)-(4-chlorophenyl)-hydroxy-methyl]-3,4-dihydroxy-tetrahydrofuran-2-yl]-1H-pyrrolo[2,3-d]pyrimidin-4-one oxime hydrochloride]	2.4 nM	8 nM	22 nM	–
CO/N=c1\nc[nH]c2c1ccn2[C@@H]1O[C@H]([C@H](O)c2ccc(Cl)c(Cl)c2)[C@@H](O)[C@H]1O [compound 69, 7-((2R,3R,4S,5R)-5-((R)-(3,4-dichlorophenyl)(hydroxy)methyl)-3,4-dihydroxytetrahydrofuran-2-yl)-1,7-dihydro-4H-pyrrolo[2,3-d]pyrimidin-4-one O-methyl oxime hydrochloride]	1.8 nM	28 nM	32 nM	–

The next lines start with results.

IC50 [4, 8]	IC50 [6]	SMILES	IC50 [7]	also measured
1970 nM	–	CO/N=c1\[nH]cnc2c1ncn2[C@@H]1O[C@H]([C@](C)(O)c2ccc(Cl)c(Cl)c2)[C@@H](O)[C@H]1O [Example 92, (2S,3S,4R,5R)-2-[(1R)-1-(3,4-dichlorophenyl)-1-hydroxy-ethyl]-5-[(6Z)-6-methoxyimino-1H-purin-9-yl]tetrahydrofuran-3,4-diol]	–	body weight loss [1]: 1%; tumor growth inhibition ([1]; N=5): 74%; inhibition of sDMA in tumor samples [2]: > 90%; clearance ([3]; i.v. 1 mg/kg, N=2): 11.3 mL/min/kg; half-life ([3]; i.v. 1 mg/kg, N=2): 1.84 h; Vd ([3]; i.v. 1 mg/kg, N=2): 1.13 L/kg; bioavailability ([3]; p.o. 1 mg/kg, N=2): > 100%; dose normalized AUC0-inf ([3]; p.o. 1 mg/kg, N=2): 2184 ng·kg·h/mL/mg
29.6 nM	57.9 nM	O[C@@H]1[C@H](O)[C@@H]([C@H](O)c2ccc(Cl)c(Cl)c2)O[C@H]1n1ccc2/c(=N/OCC(F)(F)F)nc[nH]c21 [Example 103, 7-((2R,3R,4S,5R)-5-((R)-(3,4-dichlorophenyl)(hydroxy)methyl)-3,4-dihydroxytetrahydrofuran-2-yl)-1,4a,7,7a-tetrahydro-4H-pyrrolo[2,3-d]pyrimidin-4-one 0-(2,2,2-trifluoroethyl) oxime]	62 nM	–
17300 nM	102000 nM	CO/N=c1/nc[nH]c2c1ccn2[C@@H]1O[C@H]([C@H](O)c2ccc(Cl)cc2)[C@@H](O)[C@H]1O [compound 36, (2R,3S,4R,5R)-2-[(R)-(4-chlorophenyl)-hydroxy-methyl]-5-(-4-methoxyimino-1H-pyrrolo[2,3-d]pyrimidin-7-yl]tetrahydrofuran-3,4-diol]	144 nM	solubility at 4 h [5]: 912 µg/mL (≈ 2240 µM); clearance ([3]; cassette, i.v. 0.25 mg/kg, N=3): 12.3 mL/min/kg; half-life ([3]; cassette, i.v. 0.25 mg/kg, N=3): 1.2 h; Vd ([3]; cassette, i.v. 0.25 mg/kg, N=3): 1.1 L/kg; bioavailability ([3]; cassette, p.o. 2 mg/kg, N=3): > 120%
2.6 nM	33 nM	CO/N=c1\nc[nH]c2c1ccn2[C@@H]1O[C@H]([C@](C)(O)c2ccc(Cl)c(Cl)c2)[C@@H](O)[C@H]1O [compound 61, 7-((2R,3R,4S,5S)-5-((R)-1-(3,4-dichlorophenyl)-1-hydroxyethyl)-3,4-dihydroxytetrahydrofuran-2-yl)-1,7-dihydro-4H-pyrrolo[2,3-d]pyrimidin-4-one O-methyl oxime]	47 nM	–
8.6 nM	45 nM	CO/N=c1/nc[nH]c2c1ccn2[C@@H]1O[C@H]([C@H](O)c2ccc(Cl)c(F)c2)[C@@H](O)[C@H]1O [compound 62, 7-((2R,3R,4S,5R)-5-((R)-(4-chloro-3-fluorophenyl)(hydroxy)methyl)-3,4-dihydroxytetrahydrofuran-2-yl)-1,7-dihydro-4H-pyrrolo[2,3-d]pyrimidin-4-one O-methyl oxime]	63 nM	–
10.2 nM	48 nM	CO/N=c1\nc[nH]c2c1ccn2[C@@H]1O[C@H]([C@H](O)c2ccc(F)c(F)c2)[C@@H](O)[C@H]1O [compound 70, 7-((2R,3R,4S,5R)-5-((R)-(3,4-difluorophenyl)(hydroxy)methyl)-3,4-dihydroxytetrahydrofuran-2-yl)-1,7-dihydro-4H-pyrrolo[2,3-d]pyrimidin-4-one O-methyl oxime]	130 nM	–
